Results as given in patent US9458161B1, “TSPO ligands for cancer imaging and treatment” (Vanderbilt University, priority 2011, dated 2016).
“Also recorded” adds a separate entry of the source. Where two headings read alike, the source gives them in different places.

How the values were obtained:
colorectal cancer (CRC) = assay: In vivo combination of PBR06 with Cetuximab in WT and mutant KRAS CRC cohorts; parameters: species or system mice
Excerpt: This synergism is shown with both wild type (WT) and mutant KRAS colorectal cancer (CRC) cohorts (mice).

DiFi human CRC cells = assay: Immunoblotting of markers in DiFi cells (WT KRAS) after 24 hr drug exposure; assay type: cell-based
Experimental: In these studies, cultured cells were exposed to drug for 24 hr, harvested, and the protein levels of various markers were assayed by immunoblotting.

[1] = test system: HCT116 p53−/− human CRC cells; assay: Immunoblotting of markers in HCT116 p53−/− cells (mutant KRAS) after 24 h drug exposure; assay type: cell-based
Experimental: In these studies, HCT116 p53−/− human CRC cells were exposed to drug for 24 h, harvested, and the protein levels of various markers were assayed by immunoblotting.

LIM 2405 human CRC cells = assay: Immunoblotting of markers in LIM 2405 cells (mutant B-RAF) after 24 h drug exposure; assay type: cell-based
Experimental: In these studies, LIM 2405 human CRC cells were exposed to drug for 24 h, harvested, and the protein levels of various markers were assayed by immunoblotting.

TSPO [2] = molecular target: T1, TSPO (Rattus norvegicus, UniProt P16257); assay: Radioligand displacement of [3H]PK 11195 in C6 glioma cell / tumor lysate; assay type: binding; parameters: from tissue; host or cells: C6 glioma tumour and normal brain / other tissues of living rats
Experimental: Given our focus of targeting TSPO expressed in tumors, affinity assays will be conducted in whole and fractionated tumor lysate.
In this Example Glioma-bearing rats were imaged with [^18F]PBR06 in a microPET system. Dynamic acquisitions were acquired simultaneously upon injection of 70-100 MBq/0.2 mL [^18F]PBR06. Over the course of scanning, arterial blood was collected to derive the input function, with HPLC radiometabolite analysis performed on selected samples for arterial input function correction. Compartmental modeling of the PET data was performed using the corrected arterial input function. Specific tumor cell binding of PBR06 was evaluated by radioligand displacement of [^3H]PK 11195 with PBR06 in vitro and by displacement of [^18F]PBR06 with excess PBR06 in vivo. Immediately following imaging, tumor tissue and adjacent healthy brain were harvested for assay of TSPO protein levels by western blotting and immunohistochemistry.
Radioligand displacement of the high-affinity isoquinoline carboxamide TSPO ligand [^3H]PK 11195 was used to evaluate the specific binding of the non-radioactive analogue PBR06 in C6 glioma cell line homogenates in vitro (FIG. 10). […]

TSPO [3] = molecular target: T1, TSPO; assay: Compartmental binding assay in heavy and light fractions of C6 cell lysate; parameters: from tissue; host or cells: C6 glioma tumour and normal brain / other tissues of living rats
Excerpt: In order to fully characterize TSPO expression profile in the healthy tissues and C6 cells, this example includes subcellular studies. The present inventors separated two fractions of tissue and C6 cell lysates based on the density difference. […] Based on these two fractions, we performed western blot to determine TSPO expression profile in a variety of healthy tissues and C6 cell lysates. […] Thus, we evaluated the binding potential of VUIIS1008 in different fractions.

nuclear TSPO = assay: Fractional (nuclear) displacement assay against [3H]PK 11195; settings: fractional nuclear binding assay, displacement of [3H]PK 11195
Experimental: The characterization strategy can begin with a high-throughput fractional displacement assay developed in our laboratory (FIG. 8). This assay capitalizes upon the fact that PK 11195 binds nuclear and mitochondrial TSPO. Fractionated tumor lysate material containing an equivalent distribution of nuclear and mitochondrial TSPO (32) is incubated with [^3H]PK 11195 and candidate ligands. After incubation, protein is collected by centrifugation and microspotted in triplicate into high-density arrays (˜1 uL). The resultant radioligand displacement of each assay is quantified using a high-resolution digital autoradiography imaging system (BiospaceLab).

TSPO [4] = molecular target: T1, TSPO; assay: Dynamic microPET of [18F]VUIIS-1008 in C6 glioma-bearing rats, with compartmental modeling and in vivo displacement; parameters: from tissue; host or cells: C6 glioma tumour and normal brain / other tissues of living rats; settings: 3-tissue model, tumor; mean; listed as VUIIS1008
Experimental: Dynamic microPET imaging can be performed as in tumor-bearing and non-tumor-bearing rats. […] […] For displacement studies, ‘cold’ analog (10 mg/kg) are injected via jugular catheter 30 min after radiotracer administration. Prior to PET scanning, tumors are localized in tumor-bearing rats using MRI, including T2-weighted and diffusion-weighted scans. For longitudinal studies, tumor volumes are measured using a three-dimensional, T2-weighted fast spin-echo sequence on a Varian 9.4 T horizontal bore imaging system.
A 3-compartment, 4-rate constant kinetic model can be used to characterize [^18F]PBR06 pharmacokinetics. […] These rate constants can be used to calculate the total volume of distribution (VT) in tissues of interest. Modeling will be carried out for whole brain (excluding tumor) and tumor by fitting time-activity curves (TACs) of each region.
Before PET imaging with ^18F-VUIIS1008, brain tumors were localized with T2-weighted MRI. […] After the initial spike in radioactivity consistent with tracer injection, ^18F-VUIIS1008 rapidly cleared from the plasma. Imaging-matched brains were processed for staining and immunohistochemistry. Using standard hematoxylin and eosin staining to localize the tumor, the present inventors discovered that TSPO expression was significant higher in tumor than in the adjacent healthy brain.
In order to fully evaluate the novel performance of ^18F-VUIIS1008, we have also determined ^18F-VUIIS 1008 pharmacodynamics with arterial input function.

[5] = PBR06 single agent, increasing concentrations, 24 h
[6] = C6 glioma cell lysate / tumor lysate, read-out: IC50, displacement of [3H]PK 11195

COc1ccc(OC)c(CN(C(=O)CF)c2ccccc2Oc2ccccc2)c1 [PBR06]
effect in combination with Cetuximab (in words) (colorectal cancer (CRC); WT and mutant KRAS CRC cohorts (mice)): in vivo synergistic effect
tolerability (in words) (colorectal cancer (CRC); mice): well tolerated among the test subjects
p27 levels (cell cycle arrest) (DiFi human CRC cells; PBR06 single agent 10 nM, 24 hr): significantly elevated p27
pERK levels (DiFi human CRC cells; PBR06 single agent, increasing concentrations 10 nM-10 uM, 24 hr): modestly elevated levels of pERK
enhancement in the efficacy of C225 by combination with TSPO ligand (DiFi human CRC cells; WT KRAS CRC cell line): approximately 10 fold
p27 levels (cell cycle arrest) (DiFi human CRC cells; lowest dosage of C225 (+) combined with all dosages of PBR06): significantly elevated levels of p27 could be achieved
cleaved caspase 3 (apoptosis) ([1]; C225 combined with all but the lowest concentration of PBR06): significant levels of cleaved caspase 3 were induced
pERK levels ([1]; PBR06 in combination with elevated concentrations of C225): pERK could be fully inhibited at elevated concentrations of C225 with PBR06
pERK levels [1, 5]: modestly elevated levels of pERK
p27 levels (cell cycle arrest) ([1]; lowest concentration of C225 combined with PBR06 at all concentrations): resulted in elevated p27
p21 induction (LIM 2405 human CRC cells; PBR06 in combination with C225, even the lowest dosages of C225): significant induction of p21
pERK levels (LIM 2405 human CRC cells; [5]): elevated levels of pERK
IC50 (TSPO [2]): ~0.0126 µM
IC50 (TSPO [2]; [6]): 0.012 µM
binding affinity (TSPO [2]; whole tumor lysate): ~12 nM
binding affinity in heavy (nuclei) and light (mitochondria) fractions (in words) (TSPO [3]): bind to the light fraction selectively with a high binding affinity

CCc1cc(CC)n2nc(-c3ccc(OCCF)cc3)c(CC(=O)N(CC)CC)c2n1 [VUIIS-1008]
affinity for nuclear TSPO (in words) (nuclear TSPO): nanomolar binding affinity; also recorded: targets nuclear TSPO
fold higher binding affinity compared with DPA-714 and PBR06 (TSPO [2]; C6 cell lysate, against [3H]PK11195): 30 fold
IC50 (TSPO [2]; [6]): ~0.001 µM
IC50 fold lower than PBR06 or DPA-714 (TSPO [2]; against 3H-PK 11195 in tumor lysate): approximately 10 fold
binding affinity (in words) (TSPO [2]; tumor lysate / C6 cell lysate, listed as VUIIS1008): sub-nanomolar binding affinity
binding affinity in heavy (nuclei) and light (mitochondria) fractions (in words) (TSPO [3]): comparable high binding affinity of VUIIS1008 in both two fractions
k6 (TSPO [4]): near-zero K6 in the tumor
